Patent publication US20250250606A1, “BIOELECTROCHEMICAL DETERMINATION OF LACTATE” (DIRECTSENS GMBH, priority 2022, published 2025)

What was measured:
C[C@H](O)C(=O)O = test: purified protein, by the assay type; conditions: other: apparent, L-lactate 0.125 to 64 mM, DCIP 120 μM, 11 mM PBS pH 7.4, 30° C.
[1] = target: T1, Lactobacillus johnsonii lactate dehydrogenase LjLDH, SEQ ID NO: 59, N-terminal 6xHis/HRV 3C tag (SEQ ID NO: 250) (Lactobacillus johnsonii, UniProt A0A7D9N8I3); test: Apparent steady-state kinetics of L-lactate oxidation with DCIP as electron acceptor; assay type: biochemical; conditions: L-lactate 0.125 to 64 mM, DCIP 120 μM, 11 mM PBS pH 7.4, 30° C.
T1 sequence (A0A7D9N8I3 1-412): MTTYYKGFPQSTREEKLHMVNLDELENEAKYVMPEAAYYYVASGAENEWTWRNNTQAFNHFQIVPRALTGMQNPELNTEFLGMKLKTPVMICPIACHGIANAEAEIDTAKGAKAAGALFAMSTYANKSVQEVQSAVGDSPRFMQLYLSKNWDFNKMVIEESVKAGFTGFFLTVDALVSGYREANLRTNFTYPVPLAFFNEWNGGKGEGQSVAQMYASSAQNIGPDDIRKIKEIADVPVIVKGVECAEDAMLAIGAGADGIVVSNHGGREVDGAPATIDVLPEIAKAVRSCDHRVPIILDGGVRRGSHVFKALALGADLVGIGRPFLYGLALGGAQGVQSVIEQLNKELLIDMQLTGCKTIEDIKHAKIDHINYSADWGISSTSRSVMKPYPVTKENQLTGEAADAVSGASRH

[2] = target: T2, Lactobacillus helsingborgensis lactate dehydrogenase LhLDH, SEQ ID NO: 13, N-terminal 6xHis/HRV 3C tag (SEQ ID NO: 250) (Lactobacillus helsingborgensis, UniProt A0A0F4LW09); test: as above; assay type: biochemical; conditions: L-lactate 0.125 to 64 mM, DCIP 120 μM, 11 mM PBS pH 7.4, 30° C.
T2 sequence (A0A0F4LW09 1-409): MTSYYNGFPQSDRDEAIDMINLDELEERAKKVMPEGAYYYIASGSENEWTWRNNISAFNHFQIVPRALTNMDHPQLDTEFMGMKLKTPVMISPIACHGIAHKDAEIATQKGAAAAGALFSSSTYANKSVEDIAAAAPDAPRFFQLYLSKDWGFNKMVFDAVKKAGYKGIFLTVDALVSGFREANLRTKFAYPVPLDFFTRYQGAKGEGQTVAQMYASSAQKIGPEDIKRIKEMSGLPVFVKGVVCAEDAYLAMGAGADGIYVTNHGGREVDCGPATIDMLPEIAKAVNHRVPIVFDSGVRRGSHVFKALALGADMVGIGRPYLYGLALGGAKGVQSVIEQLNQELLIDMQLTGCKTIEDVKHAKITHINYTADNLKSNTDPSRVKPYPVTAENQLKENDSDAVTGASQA

[3] = target: T3, Gilliamella bombicola lactate dehydrogenase GbLDH, SEQ ID NO: 73, N-terminal 6xHis/HRV 3C tag (SEQ ID NO: 250) (Gilliamella bombicola, UniProt A0A1C4CJ33); test: as above; assay type: biochemical; conditions: L-lactate 0.125 to 64 mM, DCIP 120 μM, 11 mM PBS pH 7.4, 30° C.
T3 sequence (A0A1C4CJ33 1-365): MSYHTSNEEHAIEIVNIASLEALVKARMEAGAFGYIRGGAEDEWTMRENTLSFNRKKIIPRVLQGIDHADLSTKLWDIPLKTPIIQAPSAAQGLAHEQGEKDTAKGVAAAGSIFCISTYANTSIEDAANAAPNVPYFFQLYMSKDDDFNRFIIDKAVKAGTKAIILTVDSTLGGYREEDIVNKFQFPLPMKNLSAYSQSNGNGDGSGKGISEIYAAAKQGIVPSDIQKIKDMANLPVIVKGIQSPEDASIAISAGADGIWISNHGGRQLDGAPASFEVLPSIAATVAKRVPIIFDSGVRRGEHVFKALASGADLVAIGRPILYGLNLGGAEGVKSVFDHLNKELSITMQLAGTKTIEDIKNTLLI

[4] = system: Shigella sp. FC1655 lactate dehydrogenase SsLDH, SEQ ID NO: 74, predicted signal peptide removed, N-terminal 6xHis/HRV 3C tag (SEQ ID NO: 250); conditions: apparent, L-lactate 0.125 to 64 mM, DCIP 120 μM, 11 mM PBS pH 7.4, 30° C.
[5] = target: T4, Pediococcus acidilactici lactate dehydrogenase PaLDH (PaLCTO), native form, SEQ ID NO: 2 (Pediococcus acidilactici, UniProt E0NE46); conditions: apparent; L-lactate 4 to 500 mM; DCIP 120 μM; 11 mM PBS pH 7.4, 30° C.; per monomeric mass
T4 sequence (E0NE46 1-369): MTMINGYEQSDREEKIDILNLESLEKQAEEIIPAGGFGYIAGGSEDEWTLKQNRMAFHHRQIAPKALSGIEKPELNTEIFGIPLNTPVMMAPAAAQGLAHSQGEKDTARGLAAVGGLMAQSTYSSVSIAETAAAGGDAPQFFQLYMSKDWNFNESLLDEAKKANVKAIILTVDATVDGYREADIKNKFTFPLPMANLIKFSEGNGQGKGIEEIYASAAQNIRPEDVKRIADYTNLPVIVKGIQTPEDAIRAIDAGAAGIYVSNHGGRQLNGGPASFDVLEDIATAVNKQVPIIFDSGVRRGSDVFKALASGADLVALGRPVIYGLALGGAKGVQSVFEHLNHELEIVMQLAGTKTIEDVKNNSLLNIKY

Compound: Enterococcus avium lactate dehydrogenase EaLDH, SEQ ID NO: 155, N-terminal 6xHis/HRV 3C tag (SEQ ID NO: 250) (Enterococcus avium ATCC 14025)
- Km (C[C@H](O)C(=O)O): 21.6 ± 2.2 mM
- kcat (C[C@H](O)C(=O)O): 94 ± 7.8 s⁻¹
- kcat/Km (C[C@H](O)C(=O)O): 4350 M⁻¹ s⁻¹

Compound: C[C@H](O)C(=O)O [L-lactate]
- Km [1]: 1.35 ± 0.18 mM
- kcat ([1]; per monomeric mass): 47.2 ± 2.0 s⁻¹
- Km [2]: 0.52 ± 0.09 mM
- kcat ([2]; per monomeric mass): 102 ± 8 s⁻¹
- Km [3]: 16.9 ± 2.5 mM
- kcat ([3]; per monomeric mass): 207 ± 29 s⁻¹
- Km [4]: 5.67 ± 1.24 mM
- kcat ([4]; per monomeric mass): 107 ± 10 s⁻¹
- kcat [5]: 61.8 ± 8.5 s⁻¹
